What was measured:
Mm (BAA-535) = assay: BDQ potentiation MIC99 microbroth assay, Mm; format: cell-based, Mycobacterium marinum; details: for Fold ∆ of BDQ MIC, Mm: 6-azasteroid fixed at 20 μM, relative to BDQ MIC99 without azasteroid
Mtb (CDC1551) = assay: BDQ potentiation MIC99 microbroth assay, Mtb; format: cell-based, Mycobacterium tuberculosis; details: 6-azasteroid fixed at 20 μM; relative to BDQ MIC99 without azasteroid
Mtb = assay: MIC of 6-azasteroid alone, Mtb; format: cell-based, Mycobacterium tuberculosis; details: (MIC99 reported as micromolar)
THP-1 cells = assay: Cytotoxicity assay (Alamar Blue), THP-1; format: cell-based; details: 72 h, read-out: Mammalian Cell IC50, THP1
HepG2 cells = assay: Cytotoxicity assay (Alamar Blue), HepG2; format: cell-based, human; details: 72 h, read-out: Mammalian Cell IC50, HepG2
Mm = assay: MIC of 6-azasteroid alone, Mm; format: cell-based, Mycobacterium marinum; details: (micromolar)

SMILES	Fold ∆ of BDQ MIC, Mtb (Mtb (CDC1551))	Mtb MIC Alone (Mtb)	IC50 (THP-1 cells)	IC50 (HepG2 cells)	further results
COc1nc2ccc(Br)cc2cc1[C@@H](c1ccccc1)[C@@](O)(CCN(C)C)c1cccc2ccccc12 [bedaquiline, reference compound]					MIC (Mm (BAA-535); Mycobacterium marinum, BAA535, read-out: Mm bedaquiline minimal inhibitory concentration, alone): 0.085 µM
CC(C)(C)c1ccc(C(C)(C)C)c(NC(=O)C2CCC3C4CNC5=CC(=O)CC[C@]5(C)C4CC[C@]23C)c1 (some centres unmarked) [compound 1]	16 fold	40 µM	17.7 µM		
CC(C)(C)c1ccc(C(C)(C)C)c(NC(=O)C2CCC3C4CNC5CC(=O)CC[C@]5(C)C4CC[C@]23C)c1 (some centres unmarked) [compound 3]		10 µM	14.2 µM	16.9 µM	
CCCN1CC2C3CCC(C(=O)Nc4cc(C(C)(C)C)ccc4C(C)(C)C)[C@@]3(C)CCC2[C@@]2(C)CCC(=O)CC12 (some centres unmarked) [compound 4]		20 µM	73 µM		
CC(C)(C)c1ccc(C(F)(F)F)cc1NC(=O)C1CCC2C3CNC4=CC(=O)CC[C@]4(C)C3CC[C@]12C (some centres unmarked) [compound 5]	2 fold	> 20 µM		60 µM	
CCCN1CC2C3CCC(C(=O)Nc4cc(C(F)(F)F)ccc4C(C)(C)C)[C@@]3(C)CCC2[C@@]2(C)CCC(=O)C=C12 (some centres unmarked) [compound 6]				71 µM	Fold ∆ of BDQ MIC, Mm (Mm (BAA-535)): 3 fold; MIC Alone (Mm) (Mm): > 20 µM
CC(C)(C)c1ccc(C(F)(F)F)cc1NC(=O)C1CCC2C3CNC4CC(=O)CC[C@]4(C)C3CC[C@]12C (some centres unmarked) [compound 7]		30 µM		12.1 µM	
C[C@]12CCC3C(CN(CCCF)C4=CC(=O)CC[C@@]43C)C1CCC2C(=O)Nc1cc(C(F)(F)F)ccc1C(F)(F)F (some centres unmarked) [compound 8]				> 100 µM	Fold ∆ of BDQ MIC, Mm (Mm (BAA-535)): 7 fold; MIC Alone (Mm) (Mm): > 20 µM
C[C@]12CCC(=O)CC1NCC1C2CC[C@]2(C)C(C(=O)Nc3cc(Br)ccc3Br)CCC12 (some centres unmarked) [compound 10]		30 µM		7.6 µM	
C[C@]12CCC(=O)CC1NCC1C2CC[C@]2(C)C(C(=O)NC34CC5CC(CC(C5)C3)C4)CCC12 (some centres unmarked) [compound 11]		> 80 µM		89.3 µM	Fold ∆ of BDQ MIC, Mm (Mm (BAA-535)): 6 fold
C[C@]12CCC3C(CNC4=CC(=O)CC[C@@]43C)C1CCC2C(=O)NC(c1ccc(F)cc1)c1ccc(F)cc1 (some centres unmarked) [compound 12]	32 fold	31 µM	24.2 µM	31.4 µM	Fold ∆ of BDQ MIC, Mm (Mm (BAA-535)): 7 fold
CCCN1CC2C3CCC(C(=O)NC(c4ccc(F)cc4)c4ccc(F)cc4)[C@@]3(C)CCC2[C@@]2(C)CCC(=O)C=C12 (some centres unmarked) [compound 13]	128 fold	> 20 µM		> 100 µM	
C[C@]12CCC(=O)CC1NCC1C2CC[C@]2(C)C(C(=O)NC(c3ccc(F)cc3)c3ccc(F)cc3)CCC12 (some centres unmarked) [compound 14]		80 µM		14.2 µM	
C[C@]12CCC3C(CNC4=CC(=O)CC[C@@]43C)C1CCC2C(=O)NC(c1ccc(F)cc1)c1ccc(C(F)(F)F)cc1 (some centres unmarked) [compound 15]	64 fold	> 20 µM		26 µM	
C[C@]12CCC(=O)CC1NCC1C2CC[C@]2(C)C(C(=O)NC(c3ccc(F)cc3)c3ccc(C(F)(F)F)cc3)CCC12 (some centres unmarked) [compound 17]		20 µM	15.6 µM	10.1 µM	
C[C@]12CCC3C(CNC4=CC(=O)CC[C@@]43C)C1CCC2C(=O)NC(c1ccncc1)c1ccc(F)cc1 (some centres unmarked) [compound 18]	4 fold	15 µM		> 100 µM	
C[C@]12CCC3C(CNC4=CC(=O)CC[C@@]43C)C1CCC2C(=O)NC(c1ccc(F)cc1)c1ccc(OC(F)(F)F)cc1 (some centres unmarked) [compound 19]	32-64 fold	> 20 µM		58.4 µM	
C[C@]12CCC(=O)CC1NCC1C2CC[C@]2(C)C(C(=O)NC(c3ccc(F)cc3)c3ccc(OC(F)(F)F)cc3)CCC12 (some centres unmarked) [compound 20]	> 32 fold	> 20 µM		5.7 µM	

SMILES	Fold ∆ of BDQ MIC, Mtb (Mtb (CDC1551))	Mtb MIC Alone (Mtb)	IC50 (THP-1 cells)	IC50 (HepG2 cells)	further results
C[C@]12CCC(O)CC1NCC1C2CC[C@]2(C)C(C(=O)NC(c3ccc(F)cc3)c3ccc(OC(F)(F)F)cc3)CCC12 (some centres unmarked) [compound 21]	> 32 fold	> 20 µM			
C[C@]12CCC3C(CNC4=CC(=O)CC[C@@]43C)C1CCC2C(=O)NC(c1ccc(OC(F)F)cc1)c1ccc(OC(F)F)cc1 (some centres unmarked) [compound 22]	> 32 fold	> 20 µM	25.7 µM		
C[C@]12CCC(=O)CC1NCC1C2CC[C@]2(C)C(C(=O)NC(c3ccc(OC(F)F)cc3)c3ccc(OC(F)F)cc3)CCC12 (some centres unmarked) [compound 23]		15 µM	3.3 µM		
CCCN1CC2C3CCC(C(=O)NC(c4ccc(OC(F)F)cc4)c4ccc(OC(F)F)cc4)[C@@]3(C)CCC2[C@@]2(C)CCC(=O)CC12 (some centres unmarked) [compound 24]		60 µM	> 100 µM		Fold ∆ of BDQ MIC, Mm (Mm (BAA-535)): 25.5 fold
C[C@]12CCC3C(CNC4=CC(=O)CC[C@@]43C)C1CCC2C(=O)NC(c1ccc(C(F)(F)F)cc1)c1ccc(C(F)(F)F)cc1 (some centres unmarked) [compound 25]	8 fold	20 µM		75.7 µM	
C[C@]12CCC(=O)CC1NCC1C2CC[C@]2(C)C(C(=O)NC(c3ccc(C(F)(F)F)cc3)c3ccc(C(F)(F)F)cc3)CCC12 (some centres unmarked) [compound 26]		7.5 µM		6 µM	
CCCN1CC2C3CCC(C(=O)NC(c4ccc(C(F)(F)F)cc4)c4ccc(C(F)(F)F)cc4)[C@@]3(C)CCC2[C@@]2(C)CCC(=O)CC12 (some centres unmarked) [compound 27]	2 fold	20 µM	> 100 µM		
C[C@]12CCC3C(CNC4=CC(=O)CC[C@@]43C)C1CCC2C(=O)NC(c1ccc(OC(F)(F)F)cc1)c1ccc(OC(F)(F)F)cc1 (some centres unmarked) [compound 28]	> 32 fold	> 20 µM	12.8 µM		
C[C@]12CCC(=O)CC1NCC1C2CC[C@]2(C)C(C(=O)NC(c3ccc(OC(F)(F)F)cc3)c3ccc(OC(F)(F)F)cc3)CCC12 (some centres unmarked) [compound 29]		5 µM	4.5 µM		
C[C@]12CCC(N)CC1NCC1C2CC[C@]2(C)C(C(=O)NC(c3ccc(OC(F)(F)F)cc3)c3ccc(OC(F)(F)F)cc3)CCC12 (some centres unmarked) [compound 30]		80 µM		2.7 µM	
CC(=O)N1CC2C3CCC(C(=O)NC(c4ccc(OC(F)(F)F)cc4)c4ccc(OC(F)(F)F)cc4)[C@@]3(C)CCC2[C@@]2(C)CCC(=O)CC12 (some centres unmarked) [compound 31]	1 fold	> 80 µM		> 100 µM	Fold ∆ of BDQ MIC, Mm (Mm (BAA-535)): 3.5 fold
C[C@]12CCC(O)CC1NCC1C2CC[C@]2(C)C(C(=O)NC(c3ccc(OC(F)(F)F)cc3)c3ccc(OC(F)(F)F)cc3)CCC12 (some centres unmarked) [compound 32]		5 µM		5.75 µM	
CC12CCC(=O)C=C1CCC1C2CCC2(C)C(C(=O)NC(c3ccc(OC(F)(F)F)cc3)c3ccc(OC(F)(F)F)cc3)CCC12 (centres unmarked) [compound 33]	1 fold	> 80 µM		> 100 µM	
CC12CCC(=O)CC1CCC1C2CCC2(C)C(C(=O)NC(c3ccc(OC(F)(F)F)cc3)c3ccc(OC(F)(F)F)cc3)CCC12 (centres unmarked) [compound 34]	1 fold	> 80 µM		> 100 µM	
CCCN1CC2C3CCC(C(=O)NC(c4ccc(OC(F)(F)F)cc4)c4ccc(OC(F)(F)F)cc4)[C@@]3(C)CCC2[C@@]2(C)CCC(=O)C=C12 (some centres unmarked) [compound 36]		> 40 µM	> 100 µM		Fold ∆ of BDQ MIC, Mm (Mm (BAA-535)): 1.6 fold
CN(C)CCN1CC2C3CCC(C(=O)NC(c4ccc(OC(F)(F)F)cc4)c4ccc(OC(F)(F)F)cc4)[C@@]3(C)CCC2[C@@]2(C)CCC(=O)CC12 (some centres unmarked) [compound 37]		5 µM	4.1 µM		
C[C@]12CCC3C(CN(CC4CC4)C4CC(=O)CC[C@]34C)C1CCC2C(=O)NC(c1ccc(OC(F)(F)F)cc1)c1ccc(OC(F)(F)F)cc1 (some centres unmarked) [compound 38]		80 µM	10 µM		
C#CCCC(=O)Nc1ccc(C(=O)c2ccc(NC(=O)C3CCC4C5CNC6=CC(=O)CC[C@]6(C)C5CC[C@]34C)cc2)cc1 (stereo partly drawn) [compound 44, 17β-[N-[4-(4-Aminobenzoyl)phenyl]pent-4-ynamide]-6-azaandrost-4-en-3-one]					BDQ potentiation activity in Mm (Mm (BAA-535); photoaffinity probes): showed BDQ potentiation activity
